PubChem BioAssay AID652101 (NMMLSC, 2013)
Active and inactive are the calls of the source.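 The calls were made as follows: active = at least 15% inhibition at the top concentration together with an EC50 under 10 microM; inactive = the rest.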

Assay: potency against LAMP-1 externalization in TALL-104 – TALL-104 cells, flow cytometry, CherryPick01, dose response (AID 652101);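 also: 0% = stimulated DMSO control and 100% = unstimulated control wells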
Details: TALL-104 lytic granule exocytosis, LAMP-1 flow cytometry; at 15.1 µM (top of the series)

SMILES | inhibition
CC(C)CNC(=O)c1c(N)n(Cc2ccc3c(c2)OCO3)c2nc3ccccc3nc12 | 69.2% (inactive)
CCOC(=O)[C@]12Cc3cc(Cl)ccc3[C@H]1N(C1CCCCC1)C(=O)c1cc(OC)ccc12 | 102% (inactive)
COC(=O)c1ccc(NC(=O)CSc2nc3ccc(N4C(=O)C5C6C=CC(C6)C5C4=O)cc3s2)cc1 (centres undefined) | 92.5% (inactive)
CCOc1cccc(CNCCc2c(C)[nH]c3ccc(OC(F)(F)F)cc23)c1O | 82.3% (inactive)

Same assay, conditions: TALL-104 lytic granule exocytosis, LAMP-1 flow cytometry; at 15.1 µM (top of the series); stimulated with 1 µM thapsigargin, 50 nM PMA

SMILES | inhibition
Cc1ccc(Cl)cc1-c1cc(C(=O)NCc2ccc(C(F)(F)F)cc2)[nH]n1 | 103% (inactive)
COC(=O)c1ccc(N2CCN(C)CC2)c(NC(=O)c2sc3ccccc3c2Cl)c1 | 70.3% (inactive)
CN(C)CCNC(=O)c1ccc(-c2cn3c(-c4ccc(Oc5ccccc5)cc4)cnc3cn2)cc1 | 81.6% (inactive)
Cc1ccc(C(=O)N/C(=C\c2ccc(-c3ccc(Br)cc3)o2)C(=O)NCCCN(C)C)cc1 | -10.6% (inactive)
COc1cc(-c2coc3c(C(=O)NCc4ccc(OC)c(OC)c4)cccc23)ccc1O | 104% (inactive)
CCCCN(CCCC)c1nc(-c2ccncc2)nc2ccccc12 | 85.6% (inactive)
O=C(Nc1nc(-c2ccccc2)cs1)c1ccc2c(=O)n3c(nc2c1)CCCCC3 | 74.2% (inactive)
CCOc1cc(CNCCc2ccc(S(N)(=O)=O)cc2)ccc1OCc1ccc(Cl)cc1 | 48.5% (inactive)
COc1cc2c(cc1OC)C(c1ccc(-c3ccc(Cl)c(Cl)c3)o1)=NCC2 | 88.4% (inactive)
CCOc1ccc2nc(N(CCCN(C)C)C(=O)c3ccc(S(=O)(=O)N4CCc5ccccc5C4)cc3)sc2c1 | 37% (inactive)
CCCCNc1c(-c2ccc(OC)c(SC3CCCCC3)c2)nc2ccc(C)cn12 | 103% (inactive)
CC(=O)Nc1cc(-c2ccccc2F)cn2c(-c3ccccc3)cnc12 | 106% (inactive)
Oc1ccccc1Nc1nc(NCc2ccco2)c2ccccc2n1 | 107% (inactive)
Cc1ccc(-c2nn(-c3ccccc3)cc2CNCc2ccccc2)cc1 | 99.5% (inactive)
O=[N+]([O-])c1cccc(-c2cc(-c3cc(Br)ccc3O)[nH]n2)c1 | 67.8% (inactive)
CN1CCN(c2ccc(NC(=O)c3ccc(-c4ccc(Cl)cc4)o3)cc2)CC1 | 97.9% (inactive)
O=c1c(Cl)c2oc3ccccc3nc-2c2ccccc12 | -0.07% (inactive)
Cc1c(C(=O)OCC(=O)Nc2cccc(S(N)(=O)=O)c2)oc2c1ccc1ccccc12 | 104% (inactive)
CCOc1ccc(C(=O)CCN2CCCCCC2)cc1 | 91.4% (inactive)
CN(C)CCCN(C(=O)CCSc1ccccc1)c1nc2cc3c(cc2s1)OCO3 | 90.1% (inactive)
COc1cccc2c1C(=O)c1ccc3ccccc3c1C2=O | 18.2% (inactive)
CCCNC(=O)Cn1sc2nc(C)cc(C)c2c1=O | 97.3% (inactive)

SMILES | inhibition
Cc1cncn1CCc1nc2c3ccccc3nc(SCC(=O)Nc3cccc(Cl)c3)n2n1 | 104% (inactive)
COC(=O)c1c(NC(=O)c2ccc(C(=O)c3ccccc3)cc2)sc2c1CC(C)(C)NC2(C)C | 90.2% (inactive)
O=c1c2ccccc2sn1-c1ccc(Cl)cc1 | 103% (inactive)
CCN(CC)CCOC(=O)c1ccc(N/C=C(/C#N)c2nc(-c3ccc(OC)cc3)cs2)cc1 | 56.9% (inactive)
O=C(Nc1nc2ccccc2n1CCN1CCOCC1)c1ccc(COc2ccccc2Br)o1 | 102% (inactive)
COc1ccc2nc3cc(Cl)ccc3c(Nc3ccc(O)c(CN4CCN(C)CC4)c3)c2c1 | 66.6% (inactive)
CCN1CCN(Cc2ccc(NC(=O)c3cc(NC(=O)C(=O)c4c[nH]c5ccccc45)cc(OC)c3)cc2C(F)(F)F)CC1 | 81.8% (inactive)
CN1CCN(c2cc(-c3ccccc3)nc3cc(-c4ccc(F)cc4)nn23)CC1 | 61.3% (inactive)
CCOCCCNC(=S)N1CCCN(c2nc3c(C)c(C)ccc3cc2C#N)CC1 | 83.8% (inactive)
COc1ccc(N(CC(=O)NCCSc2ccccn2)S(=O)(=O)c2ccccc2)c(OC)c1 | -7.92% (inactive)
COc1ccc(C2CC(c3cccs3)=NN2c2nc(C)c(C(C)=O)s2)cc1OC (centres undefined) | 2.08% (inactive)
O=c1c2cc(F)ccc2sn1-c1ccccc1Cl | 95.2% (inactive)
CCOC(=O)c1c(NC(C)=O)sc2c(OCC(O)CN(CC)CC)c(Br)ccc12 (centres undefined) | 88.2% (inactive)
CC(=O)Nc1ccc2c(=O)n(-c3ccccc3)sc2c1 | 67.8% (inactive)
O=C(COC(=O)[C@H](Cc1c[nH]c2ccccc12)NC(=O)c1ccc(Cl)cc1)Nc1ccc2c(c1)OCO2 | 108% (inactive)
COc1ccc(-c2cc(NC=O)c3ncc(-c4ccccc4)n3c2)cc1OC | 89.8% (inactive)
O=C(Nc1nc2ccc(SC(F)F)cc2s1)c1ccc(NS(=O)(=O)c2ccc(F)c(F)c2)cc1 | 105% (inactive)
Cc1cc(F)ccc1S(=O)(=O)Nc1ccccc1C(=O)Nc1ccccc1-c1nc2ccccc2[nH]1 | 106% (inactive)
COc1cccc(-c2cnc3c(NC=O)cc(-c4ccccc4)cn23)c1 | 101% (inactive)
CCOc1ccccc1CNC(=O)C1CCN(c2nnc(C)c3c(C)n(-c4ccc(C)cc4)nc23)CC1 | 59.4% (inactive)
CCOc1ccc(-c2cc(C(=O)NCCCn3ccnc3)c3cc(Br)ccc3n2)cc1 | 25.6% (inactive)
CCOC(=O)c1nnc(-c2ccccc2)nc1Sc1ccccc1Cl | 66.7% (inactive)

SMILES | inhibition
CN(C)CCCNC(=S)NCC(c1ccc(Cl)cc1Cl)c1c[nH]c2ccccc12 (centres undefined) | 92.7% (inactive)
CCOC(=O)c1cnc2ccc(OCC)cc2c1N(C)Cc1ccccc1 | 69.7% (inactive)
Nc1c(C(=O)NCc2ccc(F)cc2)c2nc3ccccc3nc2n1CCCN1CCOCC1 | 72.5% (inactive)
Cn1c(=O)c(N)c2c3c(c(Br)ccc31)C(=O)c1ccccc1-2 | 1.57% (inactive)
CSc1cccc(NC(=S)N(CCCN2CCCC2)Cc2cccn2Cc2ccc(Cl)cc2)c1 | 65.2% (inactive)
c1ccc(CCNc2ccnc3cc4ccccc4cc23)cc1 | 90.2% (inactive)
COc1ccc(N2C(=O)CC(Sc3n[nH]c(-c4ccccc4)n3)C2=O)cc1 (centres undefined) | 95.2% (inactive)
CCc1nc2ccc(C(=O)NC3CCN(Cc4ccccc4)CC3)cn2c1N(C)Cc1cc2ccccc2s1 | 101% (inactive)
Oc1ccccc1Nc1nc(NCc2ccccc2)c2ccccc2n1 | 90.6% (inactive)
CCCCC[C@@H](C)N1C[C@H](COCc2ccccc2)Oc2cc(N3CC[C@@H](N(C)C)C3)ccc2S1(=O)=O | 65% (inactive)
C=CCNc1nc(NCc2ccc(N(C)C)cc2)c2sc(-c3ccccc3)cc2n1 | -13.9% (inactive)
COc1ccc(-c2cc(NC(C)=O)c3ncc(-c4ccccc4)n3c2)c(OC)c1 | 106% (inactive)
OC(CNCC(c1ccc(Cl)cc1Cl)c1c[nH]c2ccccc12)c1ccccc1 (centres undefined) | 81.7% (inactive)
O=CNc1cc(-c2ccsc2)cn2c(-c3ccccc3)cnc12 | 105% (inactive)
N#Cc1c(NC(=O)c2ccc(Br)o2)n(-c2ccccc2)c2nc3ccccc3nc12 | -12.1% (inactive)
O=C(CCN1CCc2ccccc2C(c2ccccc2)C1)c1ccc2c(c1)OCCO2 (centres undefined) | 101% (inactive)
c1ccc(COc2ccc(-c3cc4nc(NCCCn5ccnc5)ccn4n3)cc2)cc1 | 106% (inactive)
O=C(Nc1ccc2nc(-c3cccs3)c(-c3cccs3)nc2c1)N1CCOCC1 | -2.59% (inactive)
CCOC(=O)c1ccc(NC(=O)c2ccc(C)c(S(=O)(=O)N3CCOCC3)c2)cc1 | 102% (inactive)
Cc1ccc(-c2nn(-c3ccccc3)cc2CN(Cc2ccccc2)C(=O)c2ccco2)o1 | 105% (inactive)
Cc1ccc2nc(-c3ccc(NC(=S)NC4CC(C)(C)NC(C)(C)C4)cc3)sc2c1 | 5.48% (inactive)
Cn1cncc1C#Cc1c(-c2ccc(S(C)(=O)=O)cc2)sc2ccccc12 | 102% (inactive)

SMILES | inhibition
CC(=O)Nc1ccc2sn(-c3ccccc3)c(=O)c2c1 | 81.8% (inactive)
CC(Nc1nc(N2CCNCC2)nc2ccccc12)c1ccccc1 (centres undefined) | 104% (inactive)
O=[N+]([O-])c1ccc2nc(/C=C/c3ccc(Cl)cc3)[nH]c2c1 | 98.6% (inactive)
CCc1ccc2nc(N(CCCN(C)C)C(=O)c3ccc(S(=O)(=O)N4CCc5ccccc5C4)cc3)sc2c1 | 81.8% (inactive)
O=C(Nc1ccc2nc(-c3cccs3)c(-c3cccs3)nc2c1)NC1CC1 | 68.3% (inactive)
CCC(=C(c1ccc(OC)cc1)c1ccc(OC)cc1)c1cn(CC(O)CN2CCN(C)CC2)c2ccccc12 (centres undefined) | 87.4% (inactive)
COC(=O)c1ccc(CCc2cc(O)c(Br)cc2O)cc1 | 108% (inactive)
COCCNc1nc(NCc2cccc(OC)c2)c2sc(-c3ccccc3)cc2n1 | 105% (inactive)
Cn1c(=O)c(NC2CCCCC2)c2c3c(cccc31)C(=O)c1ccccc1-2 | -4.68% (inactive)
COc1ccc2sc(N(CCCN(C)C)C(=O)c3ccc(S(=O)(=O)N4CCc5ccccc5C4)cc3)nc2c1 | 50% (inactive)
OCCN1CCN(CC(O)COc2ccc(C34CC5CC(CC(C5)C3)C4)cc2)CC1 (centres undefined) | 85.8% (inactive)
CN(C)CCC(=O)c1ccc2c(c1)OCO2 | 103% (inactive)
COC(=O)c1ccc(NCc2c(O)ccc(O)c2Br)cc1Cl | 72.6% (inactive)
O=C1OC(c2ccccc2)(c2cc(Br)ccc2O)c2ccccc21 (centres undefined) | 109% (inactive)
COc1ccc(-c2cc(NC=O)c3ncc(-c4cccc(OC)c4)n3c2)cc1 | 101% (inactive)
Cc1ccc2nc(-c3ccc(N4C(=O)CC(N5CCN(CCO)CC5)C4=O)cc3)sc2c1 (centres undefined) | 83.1% (inactive)
CCOc1ccc(Cl)cc1-c1cc(C(=O)NCc2cccs2)[nH]n1 | 79.8% (inactive)
Cc1cc(C)c2sc(N(CCCN(C)C)C(=O)c3ccc(S(=O)(=O)N4CCc5ccccc5C4)cc3)nc2c1 | -21.4% (inactive)
Cn1sc(=O)c2cc(S(=O)(=O)NC3CC3)ccc21 | 103% (inactive)
